From patent US20240262832A1, “SMALL MOLECULE MODULATORS OF GLUCOCEREBROSIDASE ACTIVITY AND USES THEREOF” (Vanqua Bio, Inc., priority 2021, published 2024)

Target: T1, GCase (Homo sapiens, UniProt P04062)
T1 construct: endogenous in cells; host or cells: HeLa cells
T1 sequence (P04062 40-536): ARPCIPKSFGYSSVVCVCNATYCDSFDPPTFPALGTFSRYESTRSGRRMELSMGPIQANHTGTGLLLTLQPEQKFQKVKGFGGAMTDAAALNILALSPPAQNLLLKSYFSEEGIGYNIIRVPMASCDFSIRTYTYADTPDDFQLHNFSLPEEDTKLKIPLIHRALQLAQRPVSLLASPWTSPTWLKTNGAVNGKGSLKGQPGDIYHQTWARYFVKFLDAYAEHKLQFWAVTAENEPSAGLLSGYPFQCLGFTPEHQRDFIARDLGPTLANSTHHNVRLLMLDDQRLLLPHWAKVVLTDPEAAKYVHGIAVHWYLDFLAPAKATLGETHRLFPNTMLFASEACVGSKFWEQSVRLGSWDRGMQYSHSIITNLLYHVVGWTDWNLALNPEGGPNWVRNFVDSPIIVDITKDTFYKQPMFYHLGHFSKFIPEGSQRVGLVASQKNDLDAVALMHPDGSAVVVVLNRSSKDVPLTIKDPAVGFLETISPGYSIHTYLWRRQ
Assay: activation of GCase in a live cell PFB assay in HELA cells
Type: cell-based

Row | EC50 | SMILES
1 | < 10 µM | C[C@@H]1C[C@@H](COc2cccnc2C(F)(F)F)CN(c2cnc3cnn(CC(F)F)c3n2)C1 [Compound 95, 1-(2,2-Difluoroethyl)-6-((3R,5R)-3-methyl-5-(((2-(trifluoromethyl)pyridin-3-yl)oxy)methyl)piperidin-1-yl)-1H-pyrazolo[3,4-b]pyrazine]
2 | 10 to 50 µM | COc1ccc(OCC2CCN(C(=O)c3cccc(C#CC(C)(C)O)c3)CC2)cc1 [Compound 420]
3 | 10 to 50 µM | O=C(c1cncc(-c2nncs2)n1)N1C[C@@H]2[C@@H](COc3cccc(C(F)(F)F)n3)[C@@H]2C1 [Compound 226, (1R,5S,6S)-3-[6-(1,3,4-thiadiazol-2-yl)pyrazine-2-carbonyl]-6-({[6-(trifluoromethyl)pyridin-2-yl]oxy}methyl)-3-azabicyclo[3.1.0]hexane]
4 | 10 to 50 µM | CC(C)c1cc(C(=O)N2C[C@@H]3[C@@H](COc4cccc(C(F)(F)F)n4)[C@@H]3C2)[nH]n1 [Compound 75, (1R,5S,6S)-3-[3-(Propan-2-yl)-1H-pyrazole-5-carbonyl]-6-({[6-(trifluoromethyl)pyridin-2-yl]oxy}methyl)-3-azabicyclo[3.1.0]hexane]
5 | < 10 µM | Cn1c(-c2cccc(C(F)(F)F)n2)nc2nc(N3C[C@@H]4[C@@H](COc5cc(F)cc(F)c5)[C@@H]4C3)cnc21 [Compound 227, 5-((1R,5S,6r)-6-((3,5-difluorophenoxy)methyl)-3-azabicyclo[3.1.0]hexan-3-yl)-1-methyl-2-(6-(trifluoromethyl)pyridin-2-yl)-1H-imidazo[4,5-b]pyrazine]
6 | > 100 µM | COc1ccc(OCC2CCN(Cc3[nH]cnc3C)CC2)cc1 [Compound 453]
7 | 10 to 50 µM | CCOc1ccccc1C(=O)N1CCC(Oc2ccc(C(F)(F)F)cn2)CC1 [Compound 391]
8 | 10 to 50 µM | COc1ccc(OCC2CCN(c3ncnc4cc[nH]c34)CC2)cc1 [Compound 427]
9 | 10 to 50 µM | Cn1c(-c2ccc(F)cc2)nc2ncc(C(=O)N3C[C@@H]4[C@@H](COc5cccnc5C(F)(F)F)[C@@H]4C3)nc21 [Compound 224]
10 | 10 to 50 µM | CCn1ncc2ncc(N3CCCC(COc4ccccc4C(F)(F)F)C3)nc21 (stereo not shown) [Compound 16, 1-{1-ethylpyrazolo[3,4-b]pyrazin-6-yl}-3-[2-(trifluoromethyl)phenoxymethyl]piperidine]
11 | 10 to 50 µM | N#Cc1cccnc1OC1CCN(C(=O)C23CC4CC(CC(C4)C2)C3)CC1 [Compound 375]
12 | 10 to 50 µM | O=C(c1nnc(C2(c3ccccc3)CCCC2)o1)N1CCCC(COc2ccccc2)C1 (stereo not shown) [Compound 3, (3-(phenoxymethyl)piperidin-1-yl)(5-(1-phenylcyclopentyl)-1,3,4-oxadiazol-2-yl)methanone]
13 | > 100 µM | O=C(c1ccc2cc[nH]c2c1)N1CC2CC2(COc2cccnc2C(F)(F)F)C1 (stereo not shown) [Compound 261, 6-[1-({[2-(Trifluoromethyl)pyridin-3-yl]oxy}methyl)-3-azabicyclo[3.1.0]hexane-3-carbonyl]-1H-indole]
14 | 10 to 50 µM | O=C(c1cc(=O)c2cc(Cl)ccc2o1)N1CCCC(COc2ccccc2)C1 (stereo not shown) [Compound 8]
15 | > 100 µM | COc1ccc(OCC2CCN(C(=O)Cn3cnnn3)CC2)cc1 [Compound 484]
16 | < 10 µM | FC(F)Cn1ncc2ncc(N3C[C@@H]4[C@@H](COc5cccnc5C(F)(F)F)[C@@H]4C3)nc21 [Compound 1, (1R,5S,6S)-3-[1-(2,2-difluoroethyl)-1H-pyrazolo[3,4-b]pyrazin-6-yl]-6-({[2-(trifluoromethyl)pyridin-3-yl]oxy}methyl)-3-azabicyclo[3.1.0]hexane]
17 | 10 to 50 µM | CN(CC1CCCN(c2cnc3cnn(CC(F)F)c3n2)C1)c1cccc(C(F)(F)F)n1 (stereo not shown) [Compound 239, N-((1-(1-(2,2-Difluoroethyl)-1H-pyrazolo[3,4-b]pyrazin-6-yl)piperidin-3-yl)methyl)-N-methyl-6-(trifluoromethyl)pyridin-2-amine]
18 | 50 to 100 µM | CC(=O)c1ccc(OCC(=O)N2CCC(OCc3ccccc3)CC2)cc1 [Compound 478]
19 | 10 to 50 µM | O=C(N1CCCC(COc2ccccc2)C1)C1(c2nnc(-c3ccccc3)o2)CCOCC1 (stereo not shown) [Compound 46, (3-(Phenoxymethyl)piperidin-1-yl)(4-(5-phenyl-1,3,4-oxadiazol-2-yl)tetrahydro-2H-pyran-4-yl)methanone]
20 | 10 to 50 µM | Cc1cccc2cc(C(=O)N3CCC(Oc4ccccc4)CC3)oc12 [Compound 409, 1-(7-Methyl-1-benzofuran-2-carbonyl)-4-phenoxypiperidine]

Row | EC50 | SMILES
21 | 10 to 50 µM | Cc1ccccc1OCC1CCCN(C(=O)c2cnn3c(-c4ccccc4)ccc(F)c23)C1 (stereo not shown) [Compound 292, (4-Fluoro-7-phenylpyrazolo[1,5-a]pyridin-3-yl)(3-((o-tolyloxy)methyl)piperidin-1-yl)methanone]
22 | > 100 µM | C[C@@H]1CC[C@H](COc2ccc(C(F)(F)F)cn2)CN1c1cnc2cnn(CC(F)F)c2n1 [Compound 275, 1-(2,2-Difluoroethyl)-6-((2R,5S)-2-methyl-5-(((5-(trifluoromethyl)pyridin-2-yl)oxy)methyl)piperidin-1-yl)-1H-pyrazolo[3,4-b]pyrazine]
23 | 10 to 50 µM | COc1ccc(OCC2CCN(Cc3ccc(CO)o3)CC2)cc1 [Compound 448]
24 | > 100 µM | COc1ccc(OCC2CCN(Cc3ccncc3C)CC2)cc1 [Compound 445]
25 | < 10 µM | CCn1c(=O)n(CC)c2nc(N3C[C@@H](C)C[C@@H](COc4cccnc4C(F)(F)F)C3)cnc21 [Compound 288a, 1,3-Diethyl-5-((3S,5R)-3-methyl-5-(((2-(trifluoromethyl)pyridin-3-yl)oxy)methyl)piperidin-1-yl)-1,3-dihydro-2H-imidazo[4,5-b]pyrazin-2-one]
26 | < 10 µM | CC1CCC(COc2cccnc2C(F)(F)F)CN1c1cncc(-c2nncs2)n1 (stereo not shown) [Compound 232, 2-[2-Methyl-5-({[2-(trifluoromethyl)pyridin-3-yl]oxy}methyl)piperidin-1-yl]-6-(1,3,4-thiadiazol-2-yl)pyrazine]
27 | > 100 µM | O=C(c1cnc(-c2nncs2)cn1)N1C[C@@H]2[C@@H](COc3cccc(C(F)(F)F)n3)[C@@H]2C1 [Compound 247, (1R,5S,6S)-3-[5-(1,3,4-Thiadiazol-2-yl)pyrazine-2-carbonyl]-6-({[6-(trifluoromethyl)pyridin-2-yl]oxy}methyl)-3-azabicyclo[3.1.0]hexane]
28 | > 100 µM | COc1ccc(OCC2CCN(C(=O)Cc3ccccn3)CC2)cc1 [Compound 466]
29 | 10 to 50 µM | CCc1cc(N2CCC(COc3ccc(OC)cc3)CC2)ncn1 [Compound 464]
30 | 10 to 50 µM | COc1cccc(C(C(=O)N2CCCC(COc3ccccc3)C2)C(C)C)c1 (stereo not shown) [Compound 141]
31 | 10 to 50 µM | C[C@@H]1C[C@H](CN(C)C23CC(C2)C3)CN(c2cnc3cnn(CC(F)F)c3n2)C1 [Compound 297]
32 | 10 to 50 µM | O=C(c1ccc2cc[nH]c2c1)N1CCC(Oc2cnccc2C(F)(F)F)CC1 [Compound 310, (1H-Indol-6-yl)(4-((4-(trifluoromethyl)pyridin-3-yl)oxy)piperidin-1-yl)methanone]
33 | < 10 µM | FC1(COc2cccc(C(F)(F)F)n2)CCCN(c2cncc(-c3nncs3)n2)C1 (stereo not shown) [Compound 65, 2-[3-Fluoro-3-({[6-(trifluoromethyl)pyridin-2-yl]oxy}methyl)piperidin-1-yl]-6-(1,3,4-thiadiazol-2-yl)pyrazine]
34 | 50 to 100 µM | O=C(c1ccc2cc[nH]c2c1)N1CCC(Oc2ccc(C(F)(F)F)nc2)CC1 [Compound 314, (1H-Indol-6-yl)(4-((6-(trifluoromethyl)pyridin-3-yl)oxy)piperidin-1-yl)methanone]
35 | 10 to 50 µM | O=C(Cc1csc(-c2ccccc2)n1)N1CCC(OCCc2ccccc2)CC1 [Compound 336, 2-(2-Phenyl-1,3-thiazol-4-yl)-1-[4-(2-phenylethoxy)piperidin-1-yl]ethan-1-one]
36 | < 10 µM | FC(F)(F)COCCn1ncc2ncc(N3CCCC(COc4cccnc4C(F)(F)F)C3)nc21 (stereo not shown) [Compound 248, 1-(2-(2,2,2-Trifluoroethoxy)ethyl)-6-(3-(((2-(trifluoromethyl)pyridin-3-yl)oxy)methyl)piperidin-1-yl)-1H-pyrazolo[3,4-b]pyrazine]
37 | 50 to 100 µM | Fc1cnc(OC[C@@H]2[C@H]3CN(c4cnc5cnn(C6COC6)c5n4)C[C@@H]23)c(F)c1 [Compound 120, 6-((1R,5S,6r)-6-(((3,5-difluoropyridin-2-yl)oxy)methyl)-3-azabicyclo[3.1.0]hexan-3-yl)-1-(oxetan-3-yl)-1H-pyrazolo[3,4-b]pyrazine]
38 | < 10 µM | CC1CC(COc2cccnc2C(F)(F)F)CN(C(=O)c2ccc3cc[nH]c3c2)C1 (single isomer, unassigned) [Compound 252b]
39 | 10 to 50 µM | FC(F)(F)Cn1ncc2ncc(N3C[C@@H]4[C@@H](COc5cccnc5C(F)(F)F)[C@@H]4C3)nc21 [Compound 101, (1R,5S,6S)-3-[1-(2,2,2-Trifluoroethyl)-1H-pyrazolo[3,4-b]pyrazin-6-yl]-6-({[2-(trifluoromethyl)pyridin-3-yl]oxy}methyl)-3-azabicyclo[3.1.0]hexane]
40 | < 10 µM | COCCn1ncc2ncc(N3C[C@@H](C)C[C@H](COc4cccnc4C(F)(F)F)C3)nc21 [Compound 230b, 1-(2-Methoxyethyl)-6-((3S,5S)-3-methyl-5-(((2-(trifluoromethyl)pyridin-3-yl)oxy)methyl)piperidin-1-yl)-1H-pyrazolo[3,4-b]pyrazine]
